Assay results: patent US8501749B2, “Azaquinazolinediones chymase inhibitors” (Boehringer Ingelheim International GmbH, priority 2009, dated 2013)

Biological target: Chymase (Homo sapiens (Human), UniProt P23946)
Conditions: read-out: Chymase IC50; fluorogenic rhodamine 110 peptide substrate, 1 hour at 28° C., 1% DMSO

Chain of Chymase (P23946 22-247): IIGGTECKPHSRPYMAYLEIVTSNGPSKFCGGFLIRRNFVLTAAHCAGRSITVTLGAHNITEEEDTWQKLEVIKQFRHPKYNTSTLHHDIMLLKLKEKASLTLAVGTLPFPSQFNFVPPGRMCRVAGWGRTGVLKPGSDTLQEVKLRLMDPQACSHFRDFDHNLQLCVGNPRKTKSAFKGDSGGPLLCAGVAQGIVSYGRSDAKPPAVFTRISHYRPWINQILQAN

IC50: 0.4 nM
Structure (SMILES): CC[C@H](CC(=O)O)n1c(=O)c2ncccc2n(Cc2cn(C)c3cc(C)cc(C)c23)c1=O [(R)-3-[2,4-Dioxo-1-(1,4,6-trimethyl-1H-indol-3-ylmethyl)-1,4-dihydro-2H-pyrido[3,2-d]pyrimidin-3-yl]-pentanoic acid]
